In a melting point compilation (Tetko et al.; mined from patent text by program, amines drawn as free bases though some values may be those of a salt) one finds melting point data, which are given here for 65 molecules.

Molecule `O=C(CCc1ccccc1Cl)Nc1c(Cl)ccc2nc(N3CC[C@H](NCCO)C3)ccc12` had a melting point of 180 to 182 °C.

Molecule `Cc1cc(-c2nc(COc3ccc(CCCn4ccnc4)cc3)co2)sc1Br` displayed a melting point of 92 to 93 °C.

For the molecule `CC1Cc2cccc(Cl)c2C1=O` (stereo not given), the melting point is 42 to 43 °C.

The molecule `O=C1c2ccc(O)cc2C(=O)N1c1ccc(O)cc1` returned a melting point of 302 to 304 °C.

For the molecule `O=[N+]([O-])c1c(CO)cccc1CO`, the melting point lay in the range of 100 to 101 °C.

`CCN(c1nc(C)cc(C)n1)c1ccc(C(C)C)cc1SC` yielded a melting point of 64 to 66 °C.

For `NS(=O)(=O)c1ccc2c(c1)C(=O)C1(CCOC1=O)O2` (stereo not given), the melting point fell in the range of 202 to 215 °C.

The molecule `CCOC(=O)c1c(C(F)(F)F)nc2cc(C(F)(F)F)ccc2c1O` had a melting point of 156 °C.

Turning to `O=S(=O)(c1ccc2c(Cl)cnc(Cl)c2c1)N1CCC[C@@H]1CO`, the melting point was determined as 168 °C.

Consider `CC(=O)OC(C)Cc1ccc(-c2ccc(C(C)=O)cc2)cc1` (stereo not given), for which the melting point lay in the range of 60 to 61 °C.

In turn, `CCOC(=O)N1CCN(c2ccc(C3=NNC(=O)CC3C)cc2[N+](=O)[O-])CC1` (stereo not given) gave a melting point of 140 to 142 °C.

Consider `Cc1cn(CC(Br)C(=O)N(C)C)nc1-c1ccccc1` (stereo not given), for which the melting point lay in the range of 104 to 107 °C.

Take `COC(=O)C=Cc1ccc(CO)cc1`: the melting point is 86 to 87 °C.

In turn, `CC(C)(CNc1ccnc2cc(Cl)ccc12)NCc1c(Cl)cccc1Cl` returned a melting point of 154 to 155 °C.

In turn, `O=C(O)c1c(C(F)(F)F)nc2c(C(F)(F)F)cccc2c1O` registered a melting point of 188 °C.

In turn, `COC(=O)Nc1cc(Cl)nc(NC(=O)OC)n1` had a melting point of 156 to 158 °C.

For the molecule `O=[N+]([O-])c1ccc2c(c1)Sc1cc(Br)ccc1N2`, the melting point is > 250 °C.

For `CS(=O)(=O)SCCOC(=O)Cc1cccc(Nc2c(Cl)cccc2Cl)c1`, the melting point was in the range of 41 to 44 °C.

Molecule `CCC(CC)C(NC(=O)c1ccc(Cl)cc1)NC(=NC#N)Nc1cccnc1` (stereo not given) gave a melting point of 185 to 187 °C.

`O=C(CC[C@H]1CC[C@H](Nc2ncc3ncnc(Nc4ccc(F)c(Cl)c4)c3n2)CC1)N1CCOCC1` yielded a melting point of 186 to 191 °C.

`Cn1cc(Br)nc(Nc2ccc3c(c2)CCNC3)c1=O`: the melting point is 170 to 171 °C.

As for `C[C@H]1CN(c2c(F)cc3c(=O)c(C(=O)O)cn(C4CC4)c3c2Br)C[C@H]1N` (relative stereo), the melting point was in the range of 186 to 190 °C.

Take `COc1cc2c(c3c1OC(C)(C)C3)C(c1cccc(NC(=O)Cc3ccncc3)c1)=NC(C)(C)C2`: the melting point was in the range of 124 to 128 °C.

For `N#CC1(c2ccc([N+](=O)[O-])cc2)CCCC1`, the melting point lay within 76 to 77 °C.

Molecule `O=C(Cc1ccccc1C(=O)O)Nc1cccc(/C=C/c2nc(C3CCCCCC3)cs2)c1` gave a melting point of 189 to 190 °C.

The molecule `O=C(O)CCSC(SCCC(=O)O)c1cccc(OCc2ccc3ccccc3n2)c1` gave a melting point of 150 to 152 °C.

Regarding `CCCC(=O)NCCC1CCc2ccc3c(c21)OCO3` (stereo not given), the melting point was 71 to 73 °C.

On to `CCCCOC(=O)c1ccc(N2CCN(C)CC2)cc1`, for which the melting point is 118 to 120 °C.

As for `O=C(CN(C(=O)CCl)C1Cc2ccccc2C1)OCc1ccccc1`, the melting point lay within 99.5 to 100 °C.

Take `COc1ccc(S(=O)(=O)C2(C(=O)O)CCN(Cc3ccc(C)cc3)CC2)cc1`: the melting point fell in the range of 176 to 177 °C.

As for `O=C(COc1ccc([N+](=O)[O-])cc1)OCCO`, the melting point was in the range of 73.5 to 75.5 °C.

Turning to `COc1ccc2cc(C(=O)[C@H](C)OS(=O)(=O)c3ccccc3)ccc2c1`, the melting point lay in the range of 74 to 75 °C.

`O=CN1CCC(c2ccccc2Cc2ccccc2)C1` (stereo not given) yielded a melting point of 70 to 71 °C.

For `CCCCCC(=O)NS(=O)(=O)/C=C/c1cc(OC(C)C)nn1Cc1ccc(Cl)cc1Cl`, the melting point is 73 to 75 °C.

`CN(C)CCNc1nc(C(=O)Nc2nc3ccc(C#N)cc3s2)cs1` had a melting point of 201 to 203 °C.

With `Nc1nc(NCCN2CCOCC2)nc(-c2cc(Cl)ccc2Cl)n1`, the melting point was in the range of 159 to 161 °C.

In turn, `CCCc1nc2c(N)nc3cc(OCc4ccccc4)ccc3c2s1` gave a melting point of 175 to 178 °C.

In the case of `CC(=O)c1ccsc1S(N)(=O)=O`, the melting point is 193 to 196 °C.

Molecule `Cc1ccc(COc2ccc(CC(NC(=O)c3cc4cc(-c5ccc(Cl)cc5)ccc4s3)C(=O)O)cc2)cc1` (stereo not given) had a melting point of 208 °C.

The molecule `COc1cc2c(cc1OC)CN(CC(=O)Nc1ccc([N+](=O)[O-])cc1)CC2` showed a melting point of 173 to 178 °C.

For the molecule `CSC(=C(C#N)C#N)N1CCc2ccccc2CC1`, the melting point lay in the range of 129 to 132 °C.

Regarding `CN(C)C(=O)C(C#N)=C(O)c1ccc(C(F)(F)F)cc1[N+](=O)[O-]`, the melting point lay within 104 to 106 °C.

Regarding `CCCc1nn(-c2ccc(C(F)(F)F)cn2)cc1CCCOc1cc(CC(=O)O)ccc1F`, the melting point was in the range of 88 to 89 °C.

`Nc1cc2c(Nc3ccc(F)c(Cl)c3)ncnc2cc1OCC1CCOCC1` came in with a melting point of 221 °C.

In turn, `COC(=O)C1(C(N)=O)C(C(N)=O)=NC(c2ccccc2)=C1N` (stereo not given) came in with a melting point of 177 to 179 °C.

For the molecule `O=C(NN1CCCC1)C(CS)Cc1ccccc1` (stereo not given), the melting point is 93 °C.

On to `O=C(Nc1ccc2c(c1)CCN(C(=O)OCc1ccccc1)C2)OCc1ccccc1`, for which the melting point was 115 to 116 °C.

The molecule `CCCOC(C)Cc1ccc(-c2ccc(O)cc2)cc1` (single isomer, unassigned; (-)) showed a melting point of 52 to 54 °C.

In turn, `S=C(NC1CCCCC1)N1CCN(c2cnccn2)CC1` yielded a melting point of 176 to 178 °C.

`COCCCCC1(O)C2=NCCCN2c2ccccc21` (stereo not given) had a melting point of 128 to 139 °C.

`O=S(=O)(c1ccc(Cl)cc1)C1(c2nnn(Cc3ccccc3)n2)CCCCC1` registered a melting point of 133 to 134 °C.

The molecule `COC1OCOc2cc3c4c(cccc4c21)C(=O)N(O)C3=O` (stereo not given) gave a melting point of 249 to 251 °C.

Consider `Cc1cc(-c2cnn3c(C(F)(F)F)cc(-c4ccc(Br)cc4)nc23)ccn1`, for which the melting point was 226 °C.

As to `COc1cc2c(cc1S(=O)(=O)c1ccc(Br)cc1)[C@@H](N1CCCC1=O)[C@H](O)C(C)(C)O2` (relative stereo), the melting point lay within 281 to 282 °C.

Take `CC1(COc2nc3ccccc3o2)Cn2cc([N+](=O)[O-])nc2O1` (stereo not given): the melting point lay in the range of 200 to 203 °C.

`CC(=O)OC1CC(OC(C)=O)C2(C)C(C1)C(Br)C(Br)C1C3CCC(C(C)CCCC(C)C)C3(C)CCC12` (stereo not given) registered a melting point of 155 to 156 °C.

On to `OCC1CNC2Cc3c[nH]c4cccc(c34)C2(O)C1` (stereo not given), for which the melting point was in the range of 145 to 149 °C.

As to `C=C(COC)c1ccc(NC(=O)N(C)C)cc1`, the melting point lay in the range of 96 to 97 °C.

Take `CN1C(=O)[C@]2(C)CC[C@](NCC(=O)N3CCC[C@H]3C#N)(C1=O)C2(C)C`: the melting point lay in the range of 141 to 144 °C.

For `Nc1ncccc1OCc1c(F)ccc(F)c1F`, the melting point lay in the range of 108 to 110 °C.

As to `CCC(CC)Nc1c(N)cc(C)c(C)c1[N+](=O)[O-]`, the melting point is 80 to 82 °C.

For the molecule `CC(=O)N(CC(C)C)C1NC(=O)N(c2cccs2)C(=O)N1`, the melting point was in the range of 138 to 139 °C.

Molecule `O=c1cc(-c2ccc([N+](=O)[O-])cc2)c2c(O)cc(O)cc2o1` came in with a melting point of 268 to 270 °C.

The molecule `COc1cc(CSc2ccc(O)cc2)cc(OC)c1O` gave a melting point of 128 °C.

As for `Cc1c(-c2ccc3cn[nH]c3c2)cc(Nc2ccc(N3CCOCC3)cn2)c2nccn12`, the melting point lay in the range of 160 to 164 °C.
